Experimental data: patent US20160102074A1, “SUBSTITUTED AMIDE COMPOUNDS” (PFIZER INC., priority 2014, published 2016)

Columns and labels:
[1] = tested on: human PCSK9; assay: PCSK9 AlphaLISA assay, PCSK9 lowering in WT7 cells; conditions: WT7 cells (Huh7 stably over-expressing human PCSK9), secreted PCSK9 by AlphaLISA, overnight incubation (16-24 h), top concentration 20 μM; read-out: Cell Based PCSK9 IC50
Source text: PCSK9 Lowering in WT7 Cells
An in-vitro AlphaLISA assay (Perkin Elmer) was developed in order to quantitate the level of PCSK9 secreted into the cell culture media following compound treatment. To detect and measure PCSK9 protein a mouse monoclonal anti-human PCSK9 antibody was coupled to AlphaLISA acceptor beads by an external vendor (Perkin Elmer) and a second rabbit monoclonal anti-human PCSK9 antibody with an epitope distinct from that of the acceptor beads was biotinylated using the EZ link NHS-LC-LC-Biotin kit (Life Technologies #21338). Streptavidin coated-donor beads (Perkin Elmer) are also included in the assay mixture which then binds the biotinylated anti-PCSK9 antibody and in the presence of PCSK9 this donor complex and acceptor beads are brought into close proximity. Upon excitation of the donor beads at 680 nm singlet oxygen molecules are released that trigger an energy transfer cascade within the acceptor beads resolving as a single peak of light emitted at 615 nm. The ability of compound to modulate PCSK9 protein levels in conditioned media by AlphaLISA was assessed in the human hepatocellular carcinoma cell line Huh7, stably over-expressing human PCSK9. This cell line, termed WT7, was established by transfecting Huh7 cells with an in-house modified pcDNA 3.1 (+) Zeo expression vector (Life Technologies) containing the full-length human PCSK9 sequence (NCBI reference identifier, NM_174936.3, where coding sequence start annotated at position 363) and a c-terminal V5 and 6×-His tag. Following plasmid transfection the stable WT7 clone was identified and maintained under Zeocin selection. Compound screening was performed in 384-well plates where WT7 cells were plated at a density of 7500 cells per well in 20 μL of tissue culture media containing compound in an eleven point, 0.5 log dilution format at a high treatment concentration of 20 μM in a final volume of 0.5% DMSO. In additional to these test compound conditions each screening plate also included wells that contained 20 μM puromycin as a positive assay control defined as high percent effect, HPE, as well as wells containing media in 0.5% DMSO as a negative treatment control defined as zero percent effect, ZPE. After overnight compound incubation (16-24 h) the tissue culture media was collected and an aliquot from each sample was transferred to individual wells of a 384-well white Optiplate (Perkin Elmer). The coupled antibodies and donor beads were added to the assay plates in a buffer composed of 30 mM Tris pH 7.4, 0.02% Tween-20 and 0.02% Casein. Anti-PCSK9 acceptor beads (final concentration of 10 μg/mL) and anti-PCSK9 biotinylated antibody (final concentration of 3 nM) were added and incubated for 30 minutes at room temperature followed by the addition of the streptavidin donor beads (final concentration 40 μg/mL) for an additional 60 minutes. Additionally a standard curve was generated where AlphaLISA reagents were incubated in wells spiked with recombinant human PCSK9 diluted in tissue culture media from 5000 ng/mL to 0.6 ng/mL. Following incubation with AlphaLISA reagents plates were read on an EnVision (Perkin Elmer) plate reader at an excitation wavelength of […] and emission/detection wavelength of […]. To determine compound IC50 the data for HPEand ZPEcontrol wells were first analyzed and the mean, standard deviation and Z prime calculated for each plate. The test compound data were converted into percent effect, using the ZPE and HPE controls as 0% and 100% activity, respectively. The equation used for converting each well reading into percent effect was:
IC50 was then calculated and reported as the midpoint in the percent effect curve in molar units and the values are reported under the Cell Based PCSK9 IC50 (μM) column header within Table 2 Biological Data. […]

[2] = tested on: human PCSK9; assay: Cell Free PCSK9 Assay (PCSK9-luciferase mRNA translation in HeLa lysate); type: biochemical; conditions: PCSK9-luciferase RNA, 30° C. for 45 minutes, top concentration 100 μM
Description: As defined herein inhibition of translation of PCSK9 mRNA to PCSK9 protein is determined by the “Cell Free PCSK9 Assay” provided herein in the specification. This “Cell Free PCSK9 Assay” is specific to the production of PCSK9 protein from PCSK9 mRNA and therefore detects inhibitors of this translational process rather than other mechanisms by which PCSK9 protein may be reduced.
In order to eliminate the permeability barrier inherent to the WT7 cell-based assays a cell-free system was also established to assess compound activitiy. A sequence containing the full length human PCSK9 (NCBI reference identifier, NM_174936.3, where coding sequence start annotated at position 363) along with 84 additional 3′ nucleotides, comprising a V5 tag and polylinker followed by an in frame modified firefly luciferase reporter (corresponding to nucleotide positions 283-1929 of pGL3, GenBank reference identifier JN542721.1) was cloned into the pT7CFE1 expression vector (ThermoScientific). The construct was then in-vitro transcribed using the MEGAscript T7 Kit (Life Technologies) and RNA subsequently purified incorporating the MEGAclear Kit (Life Technologies) according to manufacturer's protocols. HeLa cell lysates were prepared following the protocols described by Mikami (reference is Cell-Free Protein Synthesis Systems with Extracts from Cultured Human Cells, S. Mikami, T. Kobayashi and H. Imataka; from Methods in Molecular Biology, vol. 607, pages 43-52, Y. Endo et al. (eds.), Humana Press, 2010) with the following modifications. Cells were grown in a 20 L volume of CD293 medium (Gibco 11765-054) with Glutamax increased to 4 mM, penicillin at 100 U/mL and other additions as previously described by Mikami. Growth was in a 50 L wavebag at a rocker speed of 25 rpm and angle 6.1 with 5% CO2 and 0.2 LPM flow rate with cells harvested at a density of 2-2.5e6/mL. Lysates additionally contained 1 tablet of Roche cOmplete-EDTA protease inhibitors per 50 mL with tris(2-carboxyethyl)phosphine (Biovectra) substituted for dithiothreitol, and were clarified by an additional final centrifugation at 10,000 rpm in a Sorvall SS34 rotor at 4° C. for 10 minutes. Compound screening was performed in 384-well plates in an eleven point, 0.5 log dilution format at a top test compound concentration of 100 μM in a final volume of 0.5% DMSO. In additional to these test compound conditions each screening plate also included wells that contained 100 μM of compound example 16 (as depicted in WO2014170786; N-(3-chloropyridin-2-yl)-N-[(3R)-piperidin-3-yl]-4-(3H-[1,2,3]triazolo[4,5-b]pyridin-3-yl)benzamide) as a positive assay control defined as high percent effect, HPE, as well as wells containing media in 0.5% DMSO as a negative treatment control defined as zero percent effect, ZPE. Compounds were incubated at 30° C. for 45 minutes in a solution containing 0.1 μg of purified, in-vitro transcribed RNA together with the cell-free reaction mixture (consisting of 1.6 mM Mg and 112 mM K salts, 4.6 mM tris(2-carboxyethyl)phosphine (Biovectra), 5.0 μL HeLa lysate, 0.2 μL RNAsin (Promega) and 1.0 μL energy mix (containing 1.25 mM ATP (Sigma), 0.12 mM GTP (Sigma), 20 mM creatine phosphate (Santa Cruz), 60 μg/mL creatine phosphokinase (Sigma), 90 μg/mL tRNA (Sigma) and the 20 amino acids (Life Technologies) at final concentrations described by Mikami) and brought up in water to a final volume of 10 μL in water. Upon assay completion 1 μL from each reaction solution was removed and transferred to a second 384-well Optiplate (Perkin Elmer) containing 24 μL of SteadyGlo (Promega) and signal intensity was measured on the Envision (Perkin Elmer) using the enhanced luminescence protocol. To determine compound IC50 the data for HPE and ZPE control wells were first analyzed and the mean, standard deviation and Z prime calculated for each plate. The test compound data were converted into percent effect, using the ZPE and HPE controls as 0% and 100% activity, respectively, applying Equation 1 above. […]

IC50 [1] [µM] | IC50 [2] [µM] | Compound
> 20 | 5.8 | Cc1cccnc1N(C(=O)c1ccc(-c2cnn(C)c2-c2nn[nH]n2)cn1)[C@@H]1CCCNC1 [Example 1, N-(3-methylpyridin-2-yl)-5-[1-methyl-5-(2H-tetrazol-5-yl)-1H-pyrazol-4-yl]-N-[(3R)-piperidin-3-yl]pyridine-2-carboxamide]
17.3 | 15.4 | CCOC(=O)O[C@H](C)n1nnnc1-c1c(-c2ccc(C(=O)N(c3ncccc3Cl)[C@@H]3CCCNC3)cc2)cnn1C [Example 12, ethyl (R)-1-{5-[1-methyl-4-(4-{(3-chloropyridin-2-yl)[(3R)-piperidin-3-yl]carbamoyl}phenyl)-1H-pyrazol-5-yl]-1H-tetrazol-1-yl}ethyl carbonate]
> 20 | 15.3 | Cc1cccnc1N(C(=O)c1ccc(-c2cnn(C)c2-c2nn[nH]n2)c(F)c1)[C@@H]1CCCNC1 [Example 4, N-(3-methylpyridin-2-yl)-3-fluoro-4-[1-methyl-5-(2H-tetrazol-5-yl)-1H-pyrazol-4-yl]-N-[(3R)-piperidin-3-yl]benzamide]
> 20 | 10.5 | Cn1ncc(-c2ccc(C(=O)N(c3ncccc3Cl)[C@@H]3CCCNC3)nc2)c1-c1nn[nH]n1 [Example 2, N-(3-chloropyridin-2-yl)-5-[1-methyl-5-(2H-tetrazol-5-yl)-1H-pyrazol-4-yl]-N-[(3R)-piperidin-3-yl]pyridine-2-carboxamide]
